In brackets after ≈: the same amount, converted by molar mass.
Assays:
[1] = Half-life in BALB/c mouse at 10 mg/kg, po measured after 24 hrs by LC/MS/MS analysis; format: ADME, organism-based; conditions: in vivo
[2] = AUC (0 to infinity) in BALB/c mouse at 3 mg/kg, iv administered as single bolus dose measured after 24 hrs by LC/MS/MS analysis; format: ADME, organism-based; design: dose 3 mg/kg, time infinity, route intravenous; conditions: in vivo
[3] = Tmax in Sprague-Dawley rat at 10 mg/kg, po measured upto 12 hrs by LC/MS/MS analysis; format: ADME, organism-based; conditions: in vivo
[4] = target: Sodium-dependent dopamine transporter (Homo sapiens, UniProt Q01959); experiment: Inhibition of radioligand binding to human dopamine transporter by radioligand binding assay; format: ADME
Chain of Sodium-dependent dopamine transporter (Homo sapiens, UniProt Q01959) (Q01959 whole entry): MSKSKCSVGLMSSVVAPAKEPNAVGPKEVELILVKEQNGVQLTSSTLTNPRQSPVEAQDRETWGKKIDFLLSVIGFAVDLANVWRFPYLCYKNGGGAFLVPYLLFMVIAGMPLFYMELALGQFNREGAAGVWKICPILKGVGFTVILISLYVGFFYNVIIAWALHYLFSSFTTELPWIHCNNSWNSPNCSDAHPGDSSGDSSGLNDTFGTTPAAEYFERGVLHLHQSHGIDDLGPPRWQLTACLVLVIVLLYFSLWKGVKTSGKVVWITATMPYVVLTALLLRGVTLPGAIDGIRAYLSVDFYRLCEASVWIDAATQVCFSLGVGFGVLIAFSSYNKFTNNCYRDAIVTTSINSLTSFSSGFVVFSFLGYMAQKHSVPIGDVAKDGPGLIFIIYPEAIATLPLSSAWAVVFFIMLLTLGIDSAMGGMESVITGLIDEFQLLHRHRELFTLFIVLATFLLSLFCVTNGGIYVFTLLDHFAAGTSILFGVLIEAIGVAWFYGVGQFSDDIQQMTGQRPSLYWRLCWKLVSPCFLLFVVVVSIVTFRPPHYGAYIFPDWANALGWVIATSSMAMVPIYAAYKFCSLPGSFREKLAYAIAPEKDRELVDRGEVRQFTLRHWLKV

[5] = Clearance in BALB/c mouse at 3 mg/kg, iv administered as single bolus dose measured after 24 hrs by LC/MS/MS analysis; format: ADME, organism-based; conditions: in vivo
[6] = Tmax in BALB/c mouse at 10 mg/kg, po measured after 24 hrs by LC/MS/MS analysis; format: ADME, organism-based; conditions: in vivo
[7] = AUC (0 to infinity) in Sprague-Dawley rat at 3 mg/kg, iv administered as single bolus dose measured after 5 to 12 hrs by LC/MS/MS analysis; format: ADME, organism-based; design: dose 3 mg/kg, time infinity, route intravenous; conditions: in vivo
[8] = AUC (0 to infinity) in BALB/c mouse at 10 mg/kg, po measured after 24 hrs by LC/MS/MS analysis; format: ADME, organism-based; design: dose 10 mg/kg, route oral, time infinity; conditions: in vivo
[9] = target: Acidic mammalian chitinase (Homo sapiens, UniProt Q9BZP6); experiment: Inhibition of full-length C-terminal his-tagged human acidic mammalian chitinase expressed in CHOK1 cells assessed as reduction in chitinolytic activity using 4-methylumbelliferyl-beta-D-N,N-diacetylchitobioside hydrate as substrate after 60 mins by fluorometric assay
Chain of Acidic mammalian chitinase (Homo sapiens, UniProt Q9BZP6) (Q9BZP6 whole entry): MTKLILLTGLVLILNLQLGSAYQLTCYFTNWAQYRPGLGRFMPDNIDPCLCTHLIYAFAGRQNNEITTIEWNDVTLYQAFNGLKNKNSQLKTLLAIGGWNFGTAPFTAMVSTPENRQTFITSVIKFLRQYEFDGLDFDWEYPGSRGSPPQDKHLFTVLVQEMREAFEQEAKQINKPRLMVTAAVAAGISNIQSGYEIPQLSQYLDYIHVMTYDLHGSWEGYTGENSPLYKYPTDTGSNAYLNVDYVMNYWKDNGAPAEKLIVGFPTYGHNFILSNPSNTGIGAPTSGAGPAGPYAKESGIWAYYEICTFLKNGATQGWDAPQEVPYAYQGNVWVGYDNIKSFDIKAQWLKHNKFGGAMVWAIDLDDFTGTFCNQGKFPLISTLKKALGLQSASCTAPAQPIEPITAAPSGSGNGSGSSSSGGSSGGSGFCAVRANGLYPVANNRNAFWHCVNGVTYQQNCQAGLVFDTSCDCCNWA

[10] = Cmax in Sprague-Dawley rat at 3 mg/kg, iv administered as single bolus dose measured after 5 to 12 hrs by LC/MS/MS analysis; format: ADME, organism-based; design: dose 3 mg/kg, route intravenous; conditions: in vivo
[11] = Cmax in BALB/c mouse at 3 mg/kg, iv administered as single bolus dose measured after 24 hrs by LC/MS/MS analysis; format: ADME, organism-based; design: dose 3 mg/kg, route intravenous; conditions: in vivo
[12] = Cmax in Sprague-Dawley rat at 10 mg/kg, po measured upto 12 hrs by LC/MS/MS analysis; format: ADME, organism-based; design: dose 10 mg/kg, route oral; conditions: in vivo
[13] = Lipophilicity, logD of the compound at pH 7.4; format: physicochemical; conditions: buffer
Chitotriosidase-1 [14] = target: Chitotriosidase-1 (Homo sapiens, UniProt Q13231); experiment: Inhibition of full-length C-terminal his-tagged human CHIT1 expressed in CHOK1 cells assessed as reduction in chitinolytic activity using 4-methylumbelliferyl-beta-D-N,N',N\"-triacetylchitotrioside as substrate after 60 mins by fluorometric assay; format: cell-based
Chain of Chitotriosidase-1 (Homo sapiens, UniProt Q13231) (Q13231 whole entry): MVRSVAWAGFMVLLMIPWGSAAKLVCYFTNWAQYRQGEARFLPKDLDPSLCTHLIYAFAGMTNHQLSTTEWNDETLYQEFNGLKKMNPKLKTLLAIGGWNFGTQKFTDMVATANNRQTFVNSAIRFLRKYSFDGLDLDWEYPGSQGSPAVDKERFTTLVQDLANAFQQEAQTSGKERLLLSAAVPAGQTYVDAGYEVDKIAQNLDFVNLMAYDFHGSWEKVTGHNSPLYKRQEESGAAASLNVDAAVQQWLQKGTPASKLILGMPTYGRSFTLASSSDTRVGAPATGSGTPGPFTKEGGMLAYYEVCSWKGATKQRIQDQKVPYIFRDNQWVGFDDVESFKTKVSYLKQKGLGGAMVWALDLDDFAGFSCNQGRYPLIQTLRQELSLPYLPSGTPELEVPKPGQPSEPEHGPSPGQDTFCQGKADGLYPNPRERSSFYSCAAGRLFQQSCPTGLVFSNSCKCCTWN

[15] = AUC (0 to infinity) in Sprague-Dawley rat at 10 mg/kg, po measured upto 12 hrs by LC/MS/MS analysis; format: ADME, organism-based; design: dose 10 mg/kg, route oral, time infinity; conditions: in vivo
[16] = target: T1, Voltage-gated inwardly rectifying potassium channel KCNH2 (Homo sapiens, UniProt Q12809); experiment: Displacement of Tracer Red from human ERG by fluorescence polarization assay
T1 sequence (Q12809 whole entry): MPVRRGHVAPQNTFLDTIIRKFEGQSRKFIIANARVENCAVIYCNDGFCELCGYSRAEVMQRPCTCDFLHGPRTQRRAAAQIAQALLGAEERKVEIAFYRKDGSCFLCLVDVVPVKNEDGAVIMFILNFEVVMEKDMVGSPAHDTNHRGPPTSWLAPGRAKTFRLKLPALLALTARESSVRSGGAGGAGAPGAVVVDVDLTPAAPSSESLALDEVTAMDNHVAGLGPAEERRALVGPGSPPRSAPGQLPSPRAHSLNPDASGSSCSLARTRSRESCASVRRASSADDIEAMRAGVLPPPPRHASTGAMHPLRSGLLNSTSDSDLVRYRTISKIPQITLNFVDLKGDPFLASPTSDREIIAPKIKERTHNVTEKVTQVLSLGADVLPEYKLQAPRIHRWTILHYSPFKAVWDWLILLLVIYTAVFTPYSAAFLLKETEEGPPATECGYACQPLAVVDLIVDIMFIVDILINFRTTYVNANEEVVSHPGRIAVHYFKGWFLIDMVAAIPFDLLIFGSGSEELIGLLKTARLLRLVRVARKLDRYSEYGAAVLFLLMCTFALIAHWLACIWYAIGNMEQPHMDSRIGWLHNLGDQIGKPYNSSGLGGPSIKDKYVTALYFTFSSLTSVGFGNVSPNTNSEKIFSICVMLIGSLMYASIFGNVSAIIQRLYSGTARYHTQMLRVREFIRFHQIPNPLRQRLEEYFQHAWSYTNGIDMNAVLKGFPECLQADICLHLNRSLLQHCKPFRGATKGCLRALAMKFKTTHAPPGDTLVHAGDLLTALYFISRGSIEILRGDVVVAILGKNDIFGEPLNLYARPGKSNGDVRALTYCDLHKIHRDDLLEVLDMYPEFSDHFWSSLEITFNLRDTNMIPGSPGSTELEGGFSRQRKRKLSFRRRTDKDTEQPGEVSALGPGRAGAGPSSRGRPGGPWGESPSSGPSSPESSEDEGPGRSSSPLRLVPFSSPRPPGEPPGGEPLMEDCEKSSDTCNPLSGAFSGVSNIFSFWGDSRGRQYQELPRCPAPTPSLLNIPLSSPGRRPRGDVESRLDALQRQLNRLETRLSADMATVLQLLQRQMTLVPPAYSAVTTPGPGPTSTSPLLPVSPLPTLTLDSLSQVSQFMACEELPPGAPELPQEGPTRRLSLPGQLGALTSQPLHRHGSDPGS

[17] = Drug uptake in BALB/c mouse brain at 10 mg/kg, po administered as single dose after 2 hrs by LC/MS/MS analysis; format: ADME, organism-based; conditions: in vivo
[18] = target: dopamine transporter (DAT) (Homo sapiens, UniProt Q01959); experiment: Displacement of [3H]BTCP from recombinant human dopamine transporter at 10 uM after 120 mins by scintillation counting analysis relative to control; format: ADME; conditions: probe [3H]BTCP
Chain of dopamine transporter (DAT) (Q01959 whole entry): as the sequence (Q01959 whole entry) above

[19] = Half-life in BALB/c mouse at 3 mg/kg, iv administered as single bolus dose measured after 24 hrs by LC/MS/MS analysis; format: ADME, organism-based; conditions: in vivo
[20] = Half-life in Sprague-Dawley rat at 3 mg/kg, iv administered as single bolus dose measured after 5 to 12 hrs by LC/MS/MS analysis; format: ADME, organism-based; conditions: in vivo
Mus musculus = experiment: Antiinflammatory activity in C57BL/6 mouse model of house-dust mite induced pulmonary inflammation assessed as reduction in total CD45 positive cells in bronchoalveolar lavage fluid at 50 mg/kg, po administered once daily starting from day 7 post house-dust mite challenge and measured on day 19 by flow cytometric method relative to control; format: functional; design: scale not given: the % may be the effect or the level left
[21] = Half-life in Sprague-Dawley rat at 10 mg/kg, po measured upto 12 hrs by LC/MS/MS analysis; format: ADME, organism-based; conditions: in vivo
[22] = Genotoxicity in Salmonella typhimurium; format: toxicity; conditions: salmonella enterica subsp. enterica serovar typhimurium
[23] = Oral bioavailability in BALB/c mouse at 10 mg/kg measured after 24 hrs by LC/MS/MS analysis; format: ADME, organism-based; conditions: in vivo
[24] = target: Sodium-dependent dopamine transporter (Rattus norvegicus, UniProt P23977); experiment: Displacement of [3H]DA from rat dopamine transporter after 15 mins by scintillation counting analysis; format: ADME
Chain of Sodium-dependent dopamine transporter (Rattus norvegicus, UniProt P23977) (P23977 whole entry): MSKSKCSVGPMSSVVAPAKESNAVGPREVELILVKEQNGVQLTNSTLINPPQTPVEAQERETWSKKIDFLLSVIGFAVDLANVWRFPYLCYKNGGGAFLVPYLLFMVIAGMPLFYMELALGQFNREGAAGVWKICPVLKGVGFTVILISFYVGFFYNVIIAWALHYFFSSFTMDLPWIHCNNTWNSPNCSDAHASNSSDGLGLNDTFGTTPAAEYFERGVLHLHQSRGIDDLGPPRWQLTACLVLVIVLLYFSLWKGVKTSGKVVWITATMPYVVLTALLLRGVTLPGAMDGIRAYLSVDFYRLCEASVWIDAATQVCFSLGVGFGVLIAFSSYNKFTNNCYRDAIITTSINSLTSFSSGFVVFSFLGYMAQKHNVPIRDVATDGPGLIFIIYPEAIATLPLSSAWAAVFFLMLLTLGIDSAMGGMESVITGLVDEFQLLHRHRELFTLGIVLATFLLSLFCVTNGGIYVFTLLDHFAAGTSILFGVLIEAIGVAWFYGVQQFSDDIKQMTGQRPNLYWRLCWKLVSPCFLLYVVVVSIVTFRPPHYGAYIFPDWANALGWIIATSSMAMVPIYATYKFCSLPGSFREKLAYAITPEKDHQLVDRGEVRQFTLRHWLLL

[25] = Solubility of the compound in water; format: physicochemical
Chitotriosidase-1 [26] = target: Chitotriosidase-1 (Mus musculus, UniProt Q9D7Q1); experiment: Inhibition of full-length C-terminal his-tagged mouse CHIT1 expressed in CHO-K1 cells assessed as reduction in chitinolytic activity using 4-methylumbelliferyl-beta-D-N,N',N\"-triacetylchitotrioside as substrate after 60 mins by fluorometric assay; format: cell-based
Chain of Chitotriosidase-1 (Mus musculus, UniProt Q9D7Q1) (Q9D7Q1 whole entry): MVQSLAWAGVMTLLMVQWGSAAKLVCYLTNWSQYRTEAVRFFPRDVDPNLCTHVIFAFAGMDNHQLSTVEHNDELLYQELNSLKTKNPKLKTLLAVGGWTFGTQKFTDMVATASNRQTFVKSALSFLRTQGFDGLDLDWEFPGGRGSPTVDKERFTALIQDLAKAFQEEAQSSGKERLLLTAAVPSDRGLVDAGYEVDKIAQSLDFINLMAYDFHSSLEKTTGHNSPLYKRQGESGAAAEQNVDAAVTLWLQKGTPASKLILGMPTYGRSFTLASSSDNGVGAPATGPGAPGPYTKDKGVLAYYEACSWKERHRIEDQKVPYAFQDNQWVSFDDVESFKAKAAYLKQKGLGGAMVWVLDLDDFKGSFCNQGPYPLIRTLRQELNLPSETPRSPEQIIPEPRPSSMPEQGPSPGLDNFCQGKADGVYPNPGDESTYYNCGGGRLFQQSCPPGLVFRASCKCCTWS

[27] = Cmax in BALB/c mouse at 10 mg/kg, po measured after 24 hrs by LC/MS/MS analysis; format: ADME, organism-based; design: dose 10 mg/kg, route oral; conditions: in vivo
[28] = target: Acidic mammalian chitinase (Mus musculus, UniProt Q91XA9); experiment: Inhibition of full-length C-terminal his-tagged mouse acidic mammalian chitinase expressed in CHO-K1 cells assessed as reduction in chitinolytic activity using 4-methylumbelliferyl-beta-D-N,N'-diacetylchitobioside hydrate as substrate after 60 mins by fluorometric assay
Chain of Acidic mammalian chitinase (Mus musculus, UniProt Q91XA9) (Q91XA9 whole entry): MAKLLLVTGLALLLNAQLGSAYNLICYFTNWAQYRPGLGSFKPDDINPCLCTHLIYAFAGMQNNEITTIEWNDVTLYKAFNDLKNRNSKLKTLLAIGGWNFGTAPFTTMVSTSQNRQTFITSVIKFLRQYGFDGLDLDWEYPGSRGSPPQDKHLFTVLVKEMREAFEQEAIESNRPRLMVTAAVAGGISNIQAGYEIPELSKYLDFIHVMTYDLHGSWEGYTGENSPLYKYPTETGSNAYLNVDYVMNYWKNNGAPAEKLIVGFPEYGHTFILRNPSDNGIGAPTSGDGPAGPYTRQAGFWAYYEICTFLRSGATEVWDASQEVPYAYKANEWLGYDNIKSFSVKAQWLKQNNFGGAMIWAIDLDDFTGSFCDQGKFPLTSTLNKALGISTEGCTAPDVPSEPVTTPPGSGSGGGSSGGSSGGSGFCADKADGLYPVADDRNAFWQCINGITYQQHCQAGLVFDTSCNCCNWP

[29] = target: T1, Voltage-gated inwardly rectifying potassium channel KCNH2; experiment: Inhibition of human ERG expressed in CHO-K1 cells by automated Patch Clamp method; format: cell-based
[30] = Oral bioavailability in Sprague-Dawley rat at 10 mg/kg measured upto 12 hrs by LC/MS/MS analysis; format: ADME, organism-based; conditions: in vivo

In the case of `Nc1nnc(N2CCC(N3CCOC[C@@H]3Cc3ccc(Cl)cc3)CC2)[nH]1`, the half-life [1] is reported as 2.68 h, the AUC(0-inf) [2] is reported as 4760 ng·h/mL and the Tmax [3] is reported as 1.5 h. For the same molecule, the IC50 [4] was 0.3 µM, the clearance [5] was 10.5 mL/min/kg and the Tmax [6] was 1 h. For the same molecule, the AUC [7] was 4980 ng·h/mL, the AUC(0-inf) [8] was 11100 ng·h/mL and the IC50 [9] was 0.022 µM. For the same molecule, the Cmax [10] was 16500 ng/mL, the Cmax [11] was 1590 ng/mL and the Cmax [12] was 1560 ng/mL. The logD [13] was 1.96, the IC50 (Chitotriosidase-1 [14]) was 0.048 µM and the AUC(0-inf) [15] was 8010 ng·h/mL. For the same molecule, the IC50 [16] was 39 µM, the Drug uptake [17] was 6.8% and the inhibition at 2 h, 10 µM [18] was 95%. The half-life [19] was 2.5 h, the half-life [20] was 7.95 h and the Activity (Mus musculus) was 37%. The half-life [21] was 2.14 h, the Activity [22] was “Non-Toxic” and the bioavailability [23] was 70%. It also gave an IC50 [24] of 7.9 µM, a solubility [25] of 310 µg/mL (≈ 823 µM) and an IC50 (Chitotriosidase-1 [26]) of 0.074 µM. It also gave a Cmax [27] of 2390 ng/mL, an IC50 [28] of 0.03 µM and an IC50 [29] of 12 µM. The bioavailability [30] was 48%.

— ChEMBL document CHEMBL4311945, “Development of Dual Chitinase Inhibitors as Potential New Treatment for Respiratory System Diseases” (J Med Chem, 2019)
